{"source": "patent US4829086A", "about": "“Soft β-adrenergic blocking agents” (priority 1985, dated 1989)", "key": {"[1]": {"assay": "Enzymatic hydrolytic cleavage in human plasma", "format": "in vitro ADME", "conditions": "for half-life at 1000 µM: human, plasma", "description": "Analytical Methods. A high pressure liquid chromatography (HPLC) method was developed for the determination of the rate constants. The chromatographic analysis was performed in a system consisting of Waters Associates Model 600-A Solvent Delivery System, Model U-6K Injector and Model 440 Dual Channel Absorbance Detector operated at 254 and 280 nm. A 30 cm×3.9 mm (internal diameter) reverse phase μBondpack C18 column (Waters Associates), operated at ambient temperature, was used for all separations. When plasma samples were analyzed, the column was protected with a 2.3 cm×3.9 mm (internal diameter) Guard Column (Waters) packed with μBondpack C18/Corasil packing material. The mobile phase used for the separation of 17 and its degradation product, 5, consisted of water, 1-hexane sulfonic acid in acetic acid (B-6 reagent, Waters), 0.1M triethanolamine and methanol (100:1:100:799). […] For the separation of compounds 10-16 and 18 and their degradation product 5, a mobile phase consisting of water, 1-hexane sulfonic acid in acetic acid (B-6 reagent, Waters), 0.1M triethanolamine and methanol (390:1:10:599) was used.\nDetermination of the Hydrolytic Rate Constants in Aqueous Solutions. A 0.01M phosphate buffer and 0.01N sodium hydroxide solution were prepared from freshly distilled deionized water. This ionic strength was maintained at 0.1M with sodium chloride. The pH of the phosphate buffer was determined at 37.0° C. with a pH meter standardized at this temperature. For determination of the hydrolytic rate constants, a fresh concentrated solution of the ester in methanol was added to the hydrolytic medium previously equilibrated to the desired temperature and mixed thoroughly to result in an initial concentration of about 5×10^-4 mol. liter^-1. All reactions were run under pseudo first order conditions. Samples of 25 μL were injected into the column at various time intervals and the pseudo first order rate constants were determined from disappearance of the compound by linear regression of natural logarithm of the peak height versus time plots. The half-life and standard error of the rate constant were calculated for each run.\nDetermination of the Enzymatic Hydrolytic Cleavage Rates in Human Plasma. The freshly collected plasma used was obtained from the Civitan Regional Blood Center, Inc. (Gainesville, Fla.) and contained about 80% plasma diluted with anticoagulant citrate phosphate dextrose solution, U.S.P. The plasma was stored in a refrigerator and used within one week from the date it was collected.\nA portion of 50 μL of a freshly prepared solution of the compound in methanol was added to 10 mL plasma, previously equilibrated at 37.0° C. in a water bath, and mixed thoroughly to result in an initial concentration of 1×10^-3 mol. liter^-1. One mL samples of plasma were withdrawn from the test medium, mixed immediately with 4.0 mL ice cold 95% v/v ethanol, centrifuged and the supernatant analyzed by HPLC. The first order hydrolytic rate constant was determined as before in the aqueous solutions and the results are listed in TABLE II below."}, "[2]": {"system": "heart rate response to isoproterenol (β-adrenergic)", "assay": "Heart rate response to isoproterenol in rats (initial drug screening)", "format": "in vivo, male Spraque-Dawley rats", "conditions": "6 mg/kg i.p.", "text": "Initial Drug Screening Protocol. Thirty-two male Spraque-Dawley rats (Blue Spruce Farms) initially weighing 300-450 gm were divided into seven different groups, each for a different drug to be tested: 12(n=4), 14(n=4), 17(n=5), 13(n=4) and 18(n=3), corresponding to the designated compounds 12, 14, 17, 13 and 18 (number of animals), respectively. The other two groups were controls (n=8, isoproterenol alone pretreated with carrier) and those treated with a known β-blocker, dl-propranolol (n=3). Ech animal was anesthetized with sodium pentobarbital (45 mg/kg) and the carotid artery was cannulated with PE-50 tubing. The cannula was subcutaneously threaded around the neck and exteriorized dorsally between the shoulder blades. Th cannula was filled with a heparin solution (300 μg/mL) and sealed with a solid 22 gauge stylet. The animals were housed in individual stainless steel cages, and two days were allowed for recovery from the surgery. Food and water were provided ad libitum. On the day of the experiment, the blood pressure and heart rate of each rat were monitored with a pressure transducer (Narco-Bio model P-1000) and the data recorded on a four-channel physiograph (Narco-Bio systems Marck IV). One hour was allowed as an equilibration period before any drugs were administered. All beta blockers were administered intraperitoneally at a dose of 6 mg/kg. Compounds 12 and 14 and dl-proranolol were dissolved in normal saline while compounds 13, 17 and 18 were dissolved in an ethanol: water solution (3:1). Depending on the trial, controls were administered the appropriate carrier. One hour after administration of the blocker, isoproterenol (Isuprel®, Wintrop Laboratories) was administered subcutaneously at a dose of 25 μg/kg. Blood pressures and heart rate also were recorded 3, 5, 10, 15, 20, 30, 45 and 60 minutes after isoproterenol administration. Both control and experimental animals were unrestrained and free moving in their home cage throughout the experiment. […] However, significant differences in the mean heart rate response amoung the 7 groups were observed: *p<0.005;**p<0.025. Comparisons between groups were made by the Newman-Keuls procedure with significance set at the 95% confidence interval. […] All data are shown as mean±standard error of the mean."}, "[3]": {"system": "heart rate response to isoproterenol (β-adrenergic)", "assay": "Cardiovascular experiments in dogs: blockade of isoproterenol heart rate response", "format": "in vivo, mongrel dogs", "description": "Method. Healthy, mongrel dogs were anesthetized with a combination of morphine sulfate (2.0 mg/kg, subcutaneously) followed in 20 minutes with pentabarbital sodium (15 mg/kg, intravenously). Supplemental pentabarbital was given as necessary. A femoral vein was catheterized with polyethylene tubing to the level of the heart for injecting drug solutions. A polyethylene tube filled with heparinized saline was inserted through the femoral artery and advanced to the thoracic aorta for the measurement of arterial pressure. The left carotid artery was cannulated with a Millar® transducer-tip catheter for measurement of left ventricular pressure (LVP). The rising slope of the LVP signal was differentiated to give dP/dt, an estimate of myocardial contractility. Heart rate was determined via a Grass cardiotachometer triggered by the R wave of the lead II EKG. All variables were recorded on a Grass polygraph.\nDose-response curves were constructed for each experimental variable to graded i.v. doses of the β-adrenergic agonist, isoproterenol. A period of 3-5 minutes was allowed after each injection for variables to return to base-line. Following this, one of the four experimental β-adrenergic blocking agents was given i.v. over a one-minute period. Abbreviated dose-response curves (2-3 dose points) were again constructed to isoproterenol at 15, 30, 45, 60, 75 and 90 minutes after the administration of the test blockers. Using a 50-beat per minute (bpm) increase in heart rate as criteria, the degree of blockade was determined by dividing the dose of isoproterenol needed to produce a 50 bpm increase at various times following administration of an antagonists by the dose needed for this effect during the control period. The doses of the experimental β-adrenergic antagonists given were determined from previous experiments to produce an approximate two- or four-fold blockade of the heart rate response to isoproterenol."}, "[4]": {"conditions": "1 mg/kg i.v., 15 minute measurements"}}, "note": "Structures can show the parent of a compound that is named as a salt. Where two headings read alike, the source gives them in different places.", "data": [{"smiles": "CC(C)NCC(O)COc1ccc(CC(=O)OC2CC(C)(C)CC(C)(C)C2)cc1", "note": "(stereo not drawn) [Compound 17, 3,3,5,5-Tetramethylcyclohexyl 4-(2-hydroxy-3-isopropylamino)propoxyphenylacetate oxalate 3/4 hydrate]", "values": [{"measurement": "Observed first order hydrolytic rate constant k", "setting": "[1]; 37.0 ± 0.1° C., ± SEM", "value": "0.566 ± 0.027", "unit": "min⁻¹"}, {"measurement": "half-life at 1000 µM", "setting": "[1]; 37.0 ± 0.1° C., read-out: Half-life t1/2", "value": 1.22, "unit": "min"}, {"measurement": "half-life at 1000 µM", "setting": "[1]; read-out: in vitro plasma half-life", "value": "~1", "unit": "min"}, {"measurement": "mean heart rate response to isoproterenol, comparison between groups", "setting": "[2]; 1 hour before isoproterenol 25 μg/kg s.c., Newman-Keuls, first 20 minutes (17) or first 30 minutes (propranolol)", "value": "significantly different from both control- and compound 18-treated groups"}, {"measurement": "control of heart rate 60 minutes after administration", "setting": "[2]; FIG. 1", "value": "effectively control the heart rate"}, {"measurement": "mean heart rate response to isoproterenol vs groups treated with compound 12 and 18", "setting": "[2]; 10 through 45 minutes following isoproterenol", "value": "significantly different than the groups treated with compound 12 and 18"}, {"measurement": "resting heart rate prior to administration of isoproterenol", "setting": "[2]; mean ± SEM", "value": "372±19", "unit": "beat/minute"}, {"measurement": "Duration, Mean (time at which response to isoproterenol had returned to control levels)", "setting": "[3]; 1 mg/kg i.v.", "value": "~ 70 min"}, {"measurement": "Duration, Range (time at which response to isoproterenol had returned to control levels)", "setting": "[3]; 1 mg/kg i.v.", "value": "45 to 90", "unit": "min"}, {"measurement": "Maximal blockade, Mean (time necessary to reach maximal blockade)", "setting": "[3]; [4]", "value": 40, "unit": "min"}, {"measurement": "Maximal blockade, Range (time necessary to reach maximal blockade)", "setting": "[3]; [4]", "value": "30 to 60", "unit": "min"}, {"measurement": "duration of action", "setting": "[3]; i.v.", "value": "much more variable and generally longer"}]}]}
